From US6875760B2 (Novo Nordisk A/S, priority 1999, dated 2005)
Like-named read-outs stand apart in the source and are kept apart here.

Key:
[1] = target: T1, cloned human glucagon receptor (Homo sapiens, UniProt P47871); experiment: Glucagon Binding Assay (II)
T1 construct: expressed in transfected cells; plasma membrane preparation
Description: Binding of compounds to the glucagon receptor was determined in a competition binding assay using the cloned human glucagon receptor.
The receptor inserted in the pLJ6′ expression vector using EcoRI/SSt1 restriction sites (Lok et al.) was expressed in a baby hamster kidney cell line (A3 BHK 570-25).
The homogenate was resuspended and centrifuged again. The final precipitate containing the plasma membranes was suspended in buffer and stored at −80° C. until use.
Binding assays were carried out in duplicate in polypropylene tubes or microtiter plates. The buffer used in this assay was 50 mM HEPES pH 7.4 containing 5 mM EGTA, 5 mM MgCl2 and 0.005% Tween 20. Sample (glucagon (Bachem CA) or test compounds) was added to each tube or well. Tracer (˜25.000 cpm) was diluted in buffer and was added to each tube or well. 0.5 mg freshly thawed plasma membrane protein diluted in buffer was then added in aliquots to each tube or well. Tubes or plates were incubated at 37° C. for 1 hour. Non-specific binding was determined with 10^−7 M of glucagon. Bound tracer and unbound tracer were then separated by vacuum filtration. The tubes or wells were washed twice with 0.01% Triton X-100 buffer. Scintillation fluid was added to the plates and radioactivity was quantified using a scintillation counter.

human glucagon receptor = target: T2, human glucagon receptor (Homo sapiens, UniProt P47871); experiment: Glucagon Binding Assay (III); conditions: BHK cell membranes, WGA SPA beads, 125I-glucagon; read-out: Glu Bd Assay (III) IC50
T2 construct: expressed in transfected cells; host or cells: BHK (baby hamster kidney) cells
Method in brief: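 Membranes from BHK cells transfected with the human receptor, prepared at 4 °C, were used in a WGA-bead scintillation proximity binding format. Plates were shaken for 4 hours, left to settle 8–48 hours and then counted. Non-specific binding was defined with 500 nM glucagon.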

[2] = plasma membranes of BHK cells expressing the receptor, read-out: Glu Bd Assay (II) IC50

T1 sequence (P47871 26-477): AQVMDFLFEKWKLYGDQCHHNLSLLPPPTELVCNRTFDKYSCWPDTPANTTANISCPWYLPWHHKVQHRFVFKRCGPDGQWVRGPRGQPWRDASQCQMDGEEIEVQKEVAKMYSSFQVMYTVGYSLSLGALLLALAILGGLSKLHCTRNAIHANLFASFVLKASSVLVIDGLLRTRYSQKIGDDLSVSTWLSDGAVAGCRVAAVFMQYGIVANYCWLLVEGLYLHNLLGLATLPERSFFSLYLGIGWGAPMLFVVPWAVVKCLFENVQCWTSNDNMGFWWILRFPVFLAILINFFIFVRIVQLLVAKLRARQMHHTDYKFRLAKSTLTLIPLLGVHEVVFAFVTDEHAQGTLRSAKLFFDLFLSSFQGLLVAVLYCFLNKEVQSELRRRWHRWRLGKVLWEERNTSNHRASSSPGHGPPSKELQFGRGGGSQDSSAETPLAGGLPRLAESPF
T2 sequence (P47871 26-477): as above

Compound | IC50 (human glucagon receptor) [nM] | also measured
CC(C)(C)C1CCC(N(Cc2ccc(C(=O)NCCC(=O)O)cc2)C(=O)CNC(=O)OCC2c3ccccc3-c3ccccc32)CC1 (centres unmarked) | – | IC50 [1, 2]: 687 nM
CC1CCC(N(Cc2ccc(C(=O)NCCC(=O)O)cc2)C(=O)Nc2ccc(-c3ccccc3)cc2)CC1 (centres unmarked) | – | IC50 [1, 2]: 516 nM
CC(C)CC1CCC(N(Cc2ccc(C(=O)NCCC(=O)O)cc2)C(=O)Nc2ccc(OC(F)(F)F)cc2)CC1 (centres unmarked) | – | IC50 [1]: 140 nM
O=C(Nc1nn[nH]n1)c1ccc(CN(C(=O)Nc2nc3cc4c(cc3s2)OC(F)(F)C(F)(F)O4)c2ccc(C3CCCCC3)cc2)cc1 [Example 617] | 104 | –
O=C(O)CCNC(=O)c1ccc(CN(C(=O)c2cc(F)cc(C(F)(F)F)c2)C2CCC3(CCCCC3)CC2)cc1 [Example 618, 3-(4-{[(3-Fluoro-5-trifluoromethylbenzoyl)spiro[5.5]undec-3-yl-amino]methyl}benzoylamino)propionic acid] | 1070 | –
O=C(O)CCNC(=O)c1ccc(CN(C(=O)c2cc3ccccc3s2)C2CCC3(CCCCC3)CC2)cc1 [Example 619, 3-(4-{[(Benzo[b]thiophene-2-carbonyl)spiro[5.5]undec-3-yl-amino]methyl}benzoylamino)propionic acid] | 479 | –
CS(=O)(=O)c1cccc(NC(=O)N(Cc2ccc(C(=O)Nc3nn[nH]n3)cc2)C2CCC3(CCCCC3)CC2)c1 [Example 620, 4-[3-(3-Methylsulfonylphenyl)-1-spiro[5.5]undec-3-ylureidomethyl]-N-(2H-tetrazol-5-yl)benzamide] | 542 | –
CS(=O)(=O)c1ccc(OC(=O)N(Cc2ccc(C(=O)NCCC(=O)O)cc2)c2ccc(C3CCCCC3)cc2)cc1 [Example 621, 3-(4-{[(4-Cyclohexylphenyl)-(4-(methylsulfonyl)phenoxycarbonyl)amino]methyl}benzoylamino)propionic acid] | 4600 | –
CS(=O)(=O)c1ccc(OC(=O)N(Cc2ccc(C(=O)Nc3nn[nH]n3)cc2)c2ccc(C3CCCCC3)cc2)cc1 [Example 622] | 4600 | –
CC(C)(C)C1CCC(N(Cc2ccc(C(=O)Nc3nn[nH]n3)cc2)C(=O)Oc2ccc(S(C)(=O)=O)cc2)CC1 (centres unmarked) [Example 623] | 2700 | –
CC(C)(C)c1ccc(N(Cc2ccc(C(=O)Nc3nn[nH]n3)cc2)C(=O)Oc2ccc(S(C)(=O)=O)cc2)cc1 [Example 624] | 2000 | –
CCCCN1C(=O)c2ccc(NC(=O)N(Cc3ccc(C(=O)Nc4nn[nH]n4)cc3)c3ccc(C4=CCCCC4)cc3)cc2C1=O [Example 625, 4-[3-(N′-Butylphthalimid-4-yl)-1-(4-cyclohex-1-enylphenyl)ureidomethyl]-N-(2H-tetrazol-5-yl)benzamide] | 7 | –
CCCCN1C(=O)c2ccc(NC(=O)N(Cc3ccc(C(=O)NCCC(=O)O)cc3)c3ccc(C(C)(C)C)cc3)cc2C1=O [Example 626, 3-{4-[3-(N′-Butylphthalimid-4-yl)-1-(4-tert-butylphenyl)ureidomethyl]benzoylamino}propionic acid] | 38 | –
CC(C)N1C(=O)c2ccc(NC(=O)N(Cc3ccc(C(=O)Nc4nn[nH]n4)cc3)c3ccc(C4CCCCC4)cc3)cc2C1=O [Example 627, 4-[1-(4-Cyclohexylphenyl)-3-(N-isopropylphthalimid-4-yl)ureidomethyl]-N-(2H-tetrazol-5-yl)benzamide] | 8 | –
CC(C)N1C(=O)c2ccc(NC(=O)N(Cc3ccc(C(=O)Nc4nn[nH]n4)cc3)c3ccc(C(C)(C)C)cc3)cc2C1=O [Example 628, 4-[1-(4-tert-Butyl-phenyl)-3-(N′-isopropylphthalimid-4-yl)ureidomethyl]-N-(2H-tetrazol-5-yl)benzamide] | 35 | –
CC(C)N1C(=O)c2ccc(NC(=O)N(Cc3ccc(C(=O)Nc4nn[nH]n4)cc3)C3CCC(C(C)(C)C)CC3)cc2C1=O (centres unmarked) [Example 629, 4-[1-(4-tert-Butylcyclohexyl)-3-(N′-isopropylphthalimid-5-yl)ureidomethyl]-N-(2H-tetrazol-5-yl)benzamide] | 45 | –

Compound | IC50 (human glucagon receptor) [nM] | also measured
CC(C)N1C(=O)c2ccc(NC(=O)N(Cc3ccc(C(=O)NCCC(=O)O)cc3)c3ccc(C(C)(C)C)cc3)cc2C1=O [Example 630, 3-{4-[1-(4-tert-Butylphenyl)-3-(N′-isopropylphthalimid-4-yl)ureidomethyl]benzoylamino}propionic acid] | 73 | –
CC(C)N1C(=O)c2ccc(NC(=O)N(Cc3ccc(C(=O)NCCC(=O)O)cc3)c3ccc(C4CCCCC4)cc3)cc2C1=O [Example 631, 3-{4-[1-(4-Cyclohexyl-phenyl)-3-(N′-isopropylphthalimid-4-yl)ureidomethyl]benzoylamino}propionic acid] | 23 | –
CC(C)N1C(=O)c2ccc(NC(=O)N(Cc3ccc(C(=O)NCCC(=O)O)cc3)C3CCC(C(C)(C)C)CC3)cc2C1=O (centres unmarked) [Example 632, 3-{4-[1-(4-tert-Butylcyclohexyl)-3-(N′-isopropylphthalimid-4-yl)ureidomethyl]benzoylamino}propionic acid] | 91 | –
CCCCN1C(=O)c2ccc(NC(=O)N(Cc3ccc(C(=O)Nc4nn[nH]n4)cc3)C3CCC(C(C)(C)C)CC3)cc2C1=O (centres unmarked) [Example 633, 4-[1-(4-tert-Butylcyclohexyl)-3-(N′-butylphthalimid-4-yl)ureidomethyl]-N-(2H-tetrazol-5-yl)benzamide] | 19 | –
CCCCN1C(=O)c2ccc(NC(=O)N(Cc3ccc(C(=O)NCCC(=O)O)cc3)c3ccc(C4CCCCC4)cc3)cc2C1=O [Example 635, 3-{4-[3-(N′-Butylphthalimid-4-yl)-1-(4-cyclohexylphenyl)ureidomethyl]benzoylamino}propionic acid] | 18 | –
CCCCN1C(=O)c2ccc(NC(=O)N(Cc3ccc(C(=O)Nc4nn[nH]n4)cc3)c3ccc(C4CCCCC4)cc3)cc2C1=O [Example 636, 4-[3-(N′-Butylphthalimid-4-yl)-1-(4-cyclohexylphenyl)ureidomethyl]-N-(2H-tetrazol-5-yl)benzamide] | 5 | –
CCCCN1C(=O)c2ccc(NC(=O)N(Cc3ccc(C(=O)NCCC(=O)O)cc3)C3CCC(C(C)(C)C)CC3)cc2C1=O (centres unmarked) [Example 637, 3-{4-[1-(4-tert-Butylcyclohexyl)-3-(N′-butylphthalimid-4-yl)ureidomethyl]benzoylamino}propionic acid] | 116 | –
O=C(Nc1nn[nH]n1)c1ccc(CN(C(=O)Nc2ccc3c(c2)C(=O)N(CC2CC2)C3=O)c2ccc(C3CCCCC3)cc2)cc1 [Example 639, 4-[1-(4-Cyclohexylphenyl)-3-(N′-[cyclopropylmethyl]phthalimid-4-yl)ureidomethyl]-N-(2H-tetrazol-5-yl)benzamide] | 4 | –
CC(C)(C)c1ccc(N(Cc2ccc(C(=O)Nc3nn[nH]n3)cc2)C(=O)Nc2ccc3c(c2)C(=O)N(CC2CC2)C3=O)cc1 [Example 640, 4-[1-(4-tert-Butylphenyl)-3-(N′-[cyclopropylmethyl]phthalimid-4-yl)ureidomethyl]-N-(2H-tetrazol-5-yl)benzamide] | 6 | –
CC(C)(C)C1CCC(N(Cc2ccc(C(=O)NCCC(=O)O)cc2)C(=O)Nc2ccc3c(c2)C(=O)N(CC2CC2)C3=O)CC1 (centres unmarked) [Example 641, 3-{4-[1-(4-tert-Butylcyclohexyl)-3-(N′-[cyclopropylmethyl]phthalimid-4-yl)ureidomethyl]benzoylamino}propionic acid] | 21 | –
O=C(O)CCNC(=O)c1ccc(CN(C(=O)Nc2ccc3c(c2)C(=O)N(CC2CC2)C3=O)c2ccc(C3CCCCC3)cc2)cc1 [Example 642, 3-{4-[3-(N′-[Cyclopropylmethyl]phthalimid-4-yl)-1-(4-cyclohexylphenyl)ureidomethyl]benzoylamino}propionic acid] | 7 | –
CC(C)(C)c1ccc(N(Cc2ccc(C(=O)NCCC(=O)O)cc2)C(=O)Nc2ccc3c(c2)C(=O)N(CC2CC2)C3=O)cc1 [Example 643, 3-{4-[3-(N′-[Cyclopropylmethyl]phthalimid-4-yl)-1-(4-tert-butylphenyl)ureidomethyl]benzoylamino}propionic acid] | 38 | –
O=C(Nc1nn[nH]n1)c1ccc(CN(C(=O)Nc2ccc3c(c2)C(=O)N(CC2CC2)C3=O)c2ccc(C3=CCCCC3)cc2)cc1 [Example 644, 4-[3-(N′-[Cyclopropylmethyl]phthalimid-4-yl)-1-(4-cyclohex-1-enylphenyl)ureidomethyl]-N-(2H-tetrazol-5-yl)benzamide] | 4 | –
O=C(O)CCNC(=O)c1ccc(CN(C(=O)Nc2ccc3c(c2)C(=O)N(CC2CC2)C3=O)c2ccc(C3=CCCCC3)cc2)cc1 [Example 645, 3-{4-[1-(4-Cyclohex-1-enylphenyl)-3-(N′-[cyclopropylmethyl]phthalimid-4-yl)ureidomethyl]benzoylamino}propionic acid] | 7 | –
CC(c1ccc(C(=O)Nc2nn[nH]n2)cc1)N(C(=O)Nc1ccc(OC(F)(F)F)cc1)c1ccc(C(C)(C)C)cc1 (centres unmarked) [Example 646, 4-{1-[1-(4-tert-Butylphenyl)-3-(4-trifluoromethoxyphenyl)ureido]ethyl}-N-(2H-tetrazol-5-yl)benzamide] | 22 | –
(4-tert-Butylcyclohexyl)-3-(N′-[cyclopropylmethyl]phthalimid-4-yl)ureidomethyl]-N-(2H-tetrazol-5-yl)benzamide [Example 638] | 11 | –
